# Experimental data: US8841285B2, “Potent immunosuppressive agents, derivatives and uses” (priority 2002, dated 2014)
# What was measured:
# [1] = test system: RKO cells; assay: cell proliferation assay, RKO cells; type: cell-based; conditions: Homo sapiens
# Protocol: Cell Proliferation Assay. 1×10^5 of indicated cells in each well of a 96-well plate were treated with indicated compounds for 24 h followed by addition of 0.11 μCi of [^3H]-thymidine (6.7 Ci/mmol) per well for 6 h, followed by harvesting to GF/C filtermats using a cell harvester. Filtermats were air-dried and scintillation counted. IC50s were determined from quadruplicate data readings and curve-fitting analysis.
# [2] = test system: HeLa cells; type: cell-based
# [3] = test system: 293T cells; assay: cellular polyribosome profiles; type: cell-based; conditions: 30 min treatment
# Protocol: Cellular polyribosome profiles. 293T cells were treated as indicated for 30 min. Cells were washed twice with ice-cold PBS and pipetted for 5 min in 500 μl of chilled TMK100 buffer (20 mM Tris-HCl pH 7.4, 5 mM MgCl2 100 mM KCl, 2 mM DTT, 1% Triton X-100 and 100 U/ml RNAsin in DEPC water). After clearing at 10,000×g (10 min) at 4° C., the supernatant (S10) was layered onto 11 ml, 15-45% linear sucrose gradient containing 20 mM HEPES pH 7.4, 100 mM KCl, 5 mM MgCl2 and 2 mM DTT. Ultracentrifugation at 40,000 rpm for 1.5 h at 4° C. was performed in a suitable rotor. Fractions were collected from the top of the gradient by injection of Flurinert FC-40 from bottom of centrifuge tube. Gradient profiles were monitored at 254 nm. For immunoblotting, 7 mg of total protein were processed as described above, followed by collection of 500 μl fractions were collected from the top. 100 μl aliquots of each were boiled in SDS sample buffer, followed by SDS-PAGE and immunoblotting.
# [4] = test system: cap-dependent translation; assay: in vitro translation in RRL, bicistronic reporter, cap-dependent cistron; type: biochemical, rabbit; conditions: HCV IRES bicistronic reporter
# Protocol: In vitro Translation and Transcription. pSP/(CAG)33/FF/HCV/Ren·pA51 and pKS/FF/EMC/Ren were linearized by BamHI, then purified by phenol:chloroform extraction and ethanol precipitation, and dissolved in water. pSP/(CAG)33/FF/HCV/Ren·A51 and pKS/FF/EMC/Ren were individually transcribed using a large scale RNA production system in the presence of m7Gppp cap analog followed by incubation with DNase as described by the manufacturer. Resulting RNA was purified using a kit as described by the manufacturer. Translation was performed using a rabbit reticulocyte lysate system as per instructions. Briefly, 200 ng of purified RNA was combined in a 20 μl reaction containing 10 μl RRL, 0.2 μl each of minus Met and minus Leu amino acid mixtures, 70 mM KCl, 2 mM DTT, 1× translation buffer, and 10 units of RNasin. Compounds or DMSO were added to a final DMSO concentration of 2%. Reactions were incubated at 30° C. for 1.5 h, then 5 μl of the reaction mixture was assayed for luciferase activity as per instructions of luciferas reporter assay system.
Molecule,IC50 [1] [nM],stress granule formation [2],effect on polysome profile [3],inhibition of cap- versus HCV IRES-dependent translation [4]
"CC(/C=C/C(C)=C/[C@@H]1Cc2nc(cs2)[C@@H](C)CC(NCC(=O)NCCOCCOCCNC(=O)CCCC[C@@H]2SCC3NC(=O)NC32)CC(=O)O[C@@H](C)C/C(C)=C/C=C\C(=O)O1)=C\CN(C)C (some centres unmarked) [B-PatA, Biotin-PEO-Pateamine A]",< 15,,,
"C[C@@H]1C[C@@H]([C@H](O)CC2CC(=O)NC(=O)C2)C(=O)[C@@H](C)C1 [CHX, cycloheximide]",,did not induce stress granule formation,did not perturb the sucrose gradient profile,nearly equal inhibition
arsenite,,eIF4B co-localized with TIA-1 in stress granules,,
